Values quoted from earlier work, collected in patent US20240180821A1, “ORALLY DISINTEGRATING FILM COMPOSITION OF KETOROLAC AND A METHOD OF PREPARATION THEREOF” (LN LABORATORIES PVT LTD, priority 2021, published 2024).

pKa: 3.5
Structure (SMILES): O=C(c1ccccc1)c1ccc2n1CCC2C(=O)O (racemic) [Ketorolac tromethamine, (±)-5-Benzoyl-2,3-dihydro-1H-pyrrolizine-1-carboxylic acid, compound with 2-amino-2-(hydroxymethyl)-1,3-propanediol]
